Patent US10434193B2, “Composition for use in medical imaging and a method for preparing thereof” (Jacobson Research Laboratory Limited, priority 2017, dated 2019)

Assay: Determination of relaxivities r1 and r2 of contrast agents under MRI
Type: physicochemical
Text: During an MRI study, an MRI contrast agent generally shortens the value of a characteristic time constant known as the relaxation time of the nearby water protons at the tissues being examined to thereby enhance contrast of the image. The relaxivity of a contrast agent reflects how the relaxation rates of a solution change as a function of concentration [C]. Since a contrast agent may individually affect two relaxation rates (1/ΔT1 and 1/ΔT2), the degree of contrast as provided by a contrast agent is generally characterized under two corresponding relaxivities, i.e. r1 and r2 (L/mmol-s), which are defined by: 1/ΔT1=r1·[C] and 1/ΔT2=r2·[C]
The relaxation rates of a contrast agent in solution are obtained by graphing changes in relaxation rates (1/ΔT1) and (1/ΔT2) at different concentrations, with r1 and r2 being determined by the slopes of the graph.
For each of the contrast agents being tested, samples have been prepared in 10 different concentrations, namely, 1000 μg/ml, 750 μg/ml, 500 μg/ml, 250 μg/ml, 125 μg/ml, 62.50 μg/ml, 31.25 μg/ml, 15.63 μg/ml, 7.81 μg/ml and 3.91 μg/ml using DMF:H2O 4:1 as solvent for dilution of the respective stock samples.

[1] = 10 concentrations 3.91-1000 μg/ml in DMF:H2O 4:1

Row | Structure (SMILES) | r1 [1] [mL/µg/s] | r1 (molecular weight adjusted) [L/mmol/s]
1 | O=[N+]([O-])[O-].O=[N+]([O-])[O-].O=[N+]([O-])[O-].[Fe+3] [Fe(NO3)3, iron nitrate] | 0.0004 | 0.0968
2 | [Cl][Gd]([Cl])[Cl] [GdCl3] | 0.0494 | 13.0416
